Consider 12 compounds from patent publication US7825279B2, “Fused ring dicationic anti-protozoan agents and their prodrugs” (The University of North Carolina at Chapel Hill, priority 2003, dated 2010).

In experiment [1] the test system is virulent STIP90° strain of T.b.r. Put plainly: in vivo T.b.r. mouse model. The conditions noted are these: for In vivo T.b.r. Cures: cures/animals.
The test system of another experiment is Plasmodium falciparum. As to the kind of experiment: in vitro IC50 versus Plasmodium falciparum (P.f.). The format is cell-based.
The test system of another experiment is poly dA-dT. As to the kind of experiment: DNA ΔTm poly dA-dT. The format is binding. More on the design: unit not given here.
Experiment [2] deals with Trypanosoma brucei rhodesiense. Put plainly: in vitro IC50 versus Trypanosoma brucei rhodesiense (T.b.r.). The class given is cell-based.
[3] abbreviates: Plasmodium falciparum, in vitro, read-out: P.f. IC50.
The mark [4] stands for this setting: Trypanosoma brucei, RHODESIENSE

Where two headings read alike, the source gives them in different places.

With `CNC(=N)Nc1ccc2c(c1)Cc1cc(NC(=N)NC)ccc1-2` [Compound 8a, 2,7-Bis(N′-methyl)guanidino-9H-fluorene], in experiment [1], the “In vivo T.b.r. survival days” value worked out at 52 days and the “In vivo T.b.r. Cures” value was 3/4. Also, the IC50 in the experiment with Plasmodium falciparum (in vitro, read-out: P.f. IC50) worked out at 0.01 µM. The “DNA ΔTm poly dA-dT” value in the experiment on poly dA-dT amounted to 10.1. In experiment [2], this compound gave an IC50 of 0.013 µM.
As to `Cl.Cl.N=C(N)Nc1ccc2c(c1)Cc1cc(NC(=N)N)ccc1-2` [Compound 5a, 2,7-Bis-guanidino-9H-fluorene Dihydrochloride], the “In vivo T.b.r. survival days” value in experiment [1] was 6 days. For the same compound, the “In vivo T.b.r. Cures” value in experiment [1] is recorded as 0/4. For the same compound, the IC50 in the experiment with Plasmodium falciparum (Plasmodium falciparum, in vitro, read-out: IC-50 versus Plasmodium falciparum (p.f.)) was no more than 0.01 µM; in the experiment with Plasmodium falciparum (setting [3]), 0.0023 µM; in experiment [2] (setting [4]), 0.024 µM. Further, the “DNA ΔTm poly dA-dT” value in the experiment on poly dA-dT was determined as 13.6.
On to `CC(C)NC(=N)Nc1ccc2c(c1)Cc1cc(NC(=N)NC(C)C)ccc1-2` [Compound 8b, 2,7-Bis(N-iso-propyl)guanidino-9H-fluorene], for which, in experiment [1], the “In vivo T.b.r. survival days” value is 60 days and the “In vivo T.b.r. Cures” value is on record as 4/4. In addition, the IC50 with Plasmodium falciparum (in vitro, read-out: P.f. IC50) was found to be 0.0357 µM. In addition, in the experiment on poly dA-dT, the “DNA ΔTm poly dA-dT” value is listed as 9.3. In experiment [2], this compound displayed an IC50 of 0.0404 µM.
Turning to `CCOC(=O)NC(=NC)Nc1ccc2c(c1)Cc1cc(NC(=NC)NC(=O)OCC)ccc1-2` [Compound 7c, 2,7-Bis(N″-ethoxycarbonyl-N′-methyl)guanidino-9H-fluorene], the IC50 came to 1 µM in the experiment with Plasmodium falciparum (in vitro, read-out: P.f. IC50) and 2.9 µM in experiment [2].
Regarding `c1ccc(N=Nc2ccc3c(c2)Cc2cc(N=Nc4ccccn4)ccc2-3)nc1` [Compound 9b, 2,7-Bis[(2-pyridylimino)amino]-9H-fluorene], the IC50 with Plasmodium falciparum (setting [3]) worked out at 1.2 µM; in experiment [2] (setting [4]) it was 0.894 µM. Also, the “DNA ΔTm poly dA-dT” value in the experiment on poly dA-dT was 15.2.
In the case of `c1ccc(N=Nc2ccc3c(c2)Cc2cc(N=Nc4ccccc4)ccc2-3)cc1` [Compound 9a, 2,7-Bis[(phenylimino)amino]-9H-fluorene], in experiment [1], the “In vivo T.b.r. survival days” value is on record as 7 days and the “In vivo T.b.r. Cures” value is 0/4. Moreover, the IC50 in the experiment with Plasmodium falciparum (Plasmodium falciparum, read-out: P.f. IC50) is 0.481 µM. The “DNA ΔTm poly dA-dT” value with poly dA-dT is given as 22. Further, the IC50 in experiment [2] (setting [4]) came to 0.292 µM.
Take `Cl.Cl.N=C(N)Nc1ccc2c(c1)C(=O)c1cc(NC(=N)N)ccc1-2` [Compound 5b, 2,7-Bis-guanidinofluoren-9-one Dihydrochloride]: the “In vivo T.b.r. survival days” value in experiment [1] was 50.75 days. Besides, the “In vivo T.b.r. Cures” value in experiment [1] was 2/4. Besides, the values for the IC50 (in the experiment with Plasmodium falciparum (setting [3]); in experiment [2] (Dihydrochloride); in experiment [2] (setting [4])) were 0.268 µM, 0.0073 µM and no more than 0.013 µM, respectively. The “DNA ΔTm poly dA-dT” value in the experiment with poly dA-dT is recorded as 6.1.
On to `CCOC(=O)NC(=NC(C)C)Nc1ccc2c(c1)Cc1cc(NC(=NC(C)C)NC(=O)OCC)ccc1-2` [Compound 7d, 2,7-Bis(N″-ethoxycarbonyl-N′-iso-propyl)guanidino-9H-fluorene], for which the “In vivo T.b.r. survival days” value in experiment [1] is 17.75 days. Moreover, the “In vivo T.b.r. Cures” value in experiment [1] is reported as 0/4. Further, the IC50 with Plasmodium falciparum (in vitro, read-out: P.f. IC50) is 6.3 µM; in experiment [2] it was 2.5 µM. Moreover, the “DNA ΔTm poly dA-dT” value in the experiment with poly dA-dT is −0.5.
Consider `CCOC(=O)NC(=N)Nc1ccc2c(c1)C(=O)c1cc(NC(=N)NC(=O)OCC)ccc1-2` [Compound 7b, 2,7-Bis(N″-ethoxycarbonyl)guanidinofluoren-9-one], for which the “In vivo T.b.r. survival days” value in experiment [1] came to 6 days. For the same compound, the “In vivo T.b.r. Cures” value in experiment [1] is given as 0/4. Besides, the IC50 worked out at 3.2 µM in the experiment with Plasmodium falciparum (in vitro, read-out: P.f. IC50) and 1.2 µM in experiment [2]. Also, in the experiment on poly dA-dT, the “DNA ΔTm poly dA-dT” value is reported as −0.3.
As to `Cl.Cl.Cl.N=C(N)Nc1ccc2cc3ccc(NC(=N)N)cc3nc2c1` [Compound 5d, 3,6-bis-guanidinoacridine Trihydrochloride], in experiment [1], the “In vivo T.b.r. survival days” value came to 16.25 days and the “In vivo T.b.r. Cures” value was 0/4. The IC50 with Plasmodium falciparum (setting [3]) turned out to be 0.227 µM. The “DNA ΔTm poly dA-dT” value with poly dA-dT is listed as 7.7. Moreover, in experiment [2] (setting [4]), the IC50 turned out to be 0.067 µM.
On the same counts, the results for `Cl.Cl.N=C(N)Nc1ccc2c(c1)C(=O)c1cc(NC(=N)N)ccc1C2=O` [Compound 5c, 2,7-Bis-guanidinoanthraquinone Dihydrochloride] are 27 days, 0/4, 0.0235 µM, 7.2 and 0.128 µM.
As for `CCOC(=O)NC(=N)Nc1ccc2c(c1)Cc1cc(NC(=N)NC(=O)OCC)ccc1-2` [Compound 7a, 2,7-Bis(N″-ethoxycarbonyl)guanidino-9H-fluorene], the “In vivo T.b.r. survival days” value in experiment [1] is recorded as 18.75 days. For the same compound, in experiment [1], the “In vivo T.b.r. Cures” value was 0/4. In addition, the IC50 turned out to be 2.1 µM with Plasmodium falciparum (in vitro, read-out: P.f. IC50) and 1.4 µM in experiment [2]. Besides, the “DNA ΔTm poly dA-dT” value in the experiment on poly dA-dT worked out at 0.3.
